Measurements published in ChEMBL document CHEMBL1139102, “Comparison of N,N'-diarylsquaramides and N,N'-diarylureas as antagonists of the CXCR2 chemokine receptor” (Bioorg Med Chem Lett, 2007).
Converted amounts (≈) assume the structure as drawn. “And” between values parts separate entries of the source, which are not always exact repeats. Identical values can stand only once.

Assays:
[1] = target: T1, C-X-C chemokine receptor type 2 (Homo sapiens, UniProt P25025); test: Displacement of [125I]IL8 from human recombinant CXCR2 expressed in CHO cells; assay type: cell-based
T1 sequence (P25025 whole entry): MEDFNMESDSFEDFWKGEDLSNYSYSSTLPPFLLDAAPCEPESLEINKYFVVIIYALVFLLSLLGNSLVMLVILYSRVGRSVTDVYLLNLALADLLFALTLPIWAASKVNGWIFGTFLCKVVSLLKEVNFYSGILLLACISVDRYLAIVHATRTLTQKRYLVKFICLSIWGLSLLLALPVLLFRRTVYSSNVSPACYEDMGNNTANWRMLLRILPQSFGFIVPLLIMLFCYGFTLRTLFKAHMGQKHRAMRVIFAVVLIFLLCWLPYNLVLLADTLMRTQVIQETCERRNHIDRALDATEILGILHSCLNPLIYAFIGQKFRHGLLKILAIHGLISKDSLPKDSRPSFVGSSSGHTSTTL

[2] = Aqueous solubility in phosphate buffer at pH 7.4; assay type: physicochemical
[3] = Volume of distribution at steady state in Sprague-Dawley rat at 4 umol/kg, iv and 8 umol/kg, po; assay type: ADME, organism-based; settings: in vivo, read-out: Vdss
[4] = Clearance in Sprague-Dawley rat at 4 umol/kg, iv and 8 umol/kg, po; assay type: ADME, organism-based; settings: in vivo
[5] = in vivo; settings: Sprague-Dawley, rat, po, 8 umol/kg
[6] = Dissociation constant, pKa at pH 7.4; assay type: physicochemical

Structure (SMILES) | IC50 [1] | solubility [2] [µM] | also measured
O=C(c1c(Cl)ccc(Nc2c(Nc3ccccc3Br)c(=O)c2=O)c1O)N1CCCC1 | 28 nM | 143 (≈ 70.2 µg/mL) | 
COCCNS(=O)(=O)c1c(Cl)ccc(Nc2c(Nc3ccccc3)c(=O)c2=O)c1O | 8 nM | 73 (≈ 33 µg/mL) | Vd [3]: 0.14 L/kg; clearance [4]: 0.6 mL/min/kg; bioavailability [5]: 23%
CCCc1ccccc1Nc1c(Nc2ccc(Cl)c(S(=O)(=O)N3CCN(CC)CC3)c2O)c(=O)c1=O.O=C(O)C(F)(F)F | 8 nM | 78 | Vd [3]: 0.89 L/kg; clearance [4]: 7 mL/min/kg
N#Cc1ccc(Nc2c(Nc3ccccc3Br)c(=O)c2=O)c(O)c1 | 15 nM and 36 nM | 14 (≈ 5.38 µg/mL) | Vd [3]: 0.15 L/kg; clearance [4]: 15 mL/min/kg
CN1CCCN(S(=O)(=O)c2c(Cl)ccc(Nc3c(Nc4ccccc4Cl)c(=O)c3=O)c2O)CC1.Cl | 20 nM | 160 | Vd [3]: 0.31 L/kg; clearance [4]: 4 mL/min/kg
CN1CCCN(C(=O)c2cccc(Nc3c(Nc4ccccc4)c(=O)c3=O)c2O)CC1.O=C(O)C(F)(F)F | 44 nM | 178 | Vd [3]: 0.33 L/kg; clearance [4]: 15 mL/min/kg
Cl.O=c1c(Nc2ccccc2)c(Nc2ccc(Cl)c(S(=O)(=O)N3CCC(N4CCCCC4)CC3)c2O)c1=O |  | 7 | Vd [3]: 0.24 L/kg; clearance [4]: 1.2 mL/min/kg; bioavailability [5]: 5%
O=c1c(Nc2ccc([N+](=O)[O-])cc2O)c(Nc2ccccc2Br)c1=O | 37 nM |  | 
O=c1c(O)c(Nc2ccc([N+](=O)[O-])cc2O)/c1=N/c1ccccc1 | 22 nM |  | 
O=C(c1cccc(Nc2c(Nc3ccccc3C(F)(F)F)c(=O)c2=O)c1O)N1CCCC1 |  | 86 (≈ 38.3 µg/mL) | Vd [3]: 0.66 L/kg; clearance [4]: 45 mL/min/kg
CN1CCN(S(=O)(=O)c2c(F)ccc(Nc3c(Nc4ccccc4Br)c(=O)c3=O)c2O)CC1.O=C(O)C(F)(F)F | 13 nM | 44 | 
O=C(Nc1ccccc1)Nc1cc(Cl)c([N+](=O)[O-])cc1O | 950 nM |  | 
Cc1ccccc1Nc1c(Nc2ccc(C)c(S(=O)(=O)N(C)C)c2O)c(=O)c1=O | 15 nM | 10 (≈ 4.15 µg/mL) | Vd [3]: 0.25 L/kg; clearance [4]: 4 mL/min/kg
CN1CCCN(S(=O)(=O)c2c(Cl)ccc(Nc3c(Nc4ccccc4Br)c(=O)c3=O)c2O)CC1.Cl | 10 nM | 138 | Vd [3]: 0.24 L/kg; clearance [4]: 4 mL/min/kg
CN1CCN(C(=O)c2cccc(Nc3c(Nc4ccccc4)c(=O)c3=O)c2O)CC1.O=C(O)C(F)(F)F | 27 nM | 121 | 

The next lines start with results.

IC50 [1] | solubility [2] [µM] | Structure (SMILES) | also measured
276 nM |  | N#Cc1cccc(NC(=O)Nc2ccccc2)c1O | 
> 30000 nM |  | O=C(Nc1ccccc1)Nc1cc(Cl)ccc1O | 
25000 nM |  | Cc1ccc(NC(=O)Nc2ccccc2)c(O)c1 | 
32 nM |  | N#Cc1cccc(Nc2c(Nc3ccccc3)c(=O)c2=O)c1O | 
32 nM | 3 (≈ 1.18 µg/mL) | O=c1c(Nc2ccc(Cl)cc2O)c(Nc2ccccc2Br)c1=O | 
> 30000 nM |  | O=C(Nc1ccccc1)Nc1c(O)cccc1[N+](=O)[O-] | 
1720 nM |  | Cc1cccc(O)c1Nc1c(Nc2ccccc2)c(=O)c1=O | 
235 nM |  | O=c1c(O)c(Nc2ccccc2)/c1=N/c1ccccc1O | pKa [6]: 8.6
14 nM | 88 (≈ 31.5 µg/mL) | NC(=O)c1c(Cl)ccc(Nc2c(Nc3ccccc3)c(=O)c2=O)c1O | 
358 nM |  | O=c1c(Nc2ccccc2)c(Nc2c(O)cccc2[N+](=O)[O-])c1=O | 
52 nM |  | O=c1c(Nc2ccccc2)c(Nc2cc(Cl)c([N+](=O)[O-])cc2O)c1=O | 
54 nM |  | O=c1c(Nc2ccccc2)c(Nc2cc(Cl)ccc2O)c1=O | 
> 30000 nM |  | O=C(Nc1ccccc1)Nc1ccccc1O | 
> 30000 nM |  | Cc1cccc(O)c1NC(=O)Nc1ccccc1 | 
205 nM |  | Cc1ccc(Nc2c(Nc3ccccc3)c(=O)c2=O)c(O)c1 | 
15 nM |  | N#Cc1ccc(Nc2c(O)c(=O)/c2=N\c2ccccc2)c(O)c1 | pKa [6]: 7.09
> 9000 nM |  | O=C(Nc1ccccc1O)Nc1ccccc1Br | 
308 nM |  | Cc1ccc(O)c(Nc2c(Nc3ccccc3)c(=O)c2=O)c1 | 
> 30000 nM |  | Cc1ccc(O)c(NC(=O)Nc2ccccc2)c1 | 
51 nM |  | O=c1c(Nc2ccccc2O)c(Nc2ccccc2Br)c1=O | 
